From patent US5721207A, “Method for treatment of pain” (Innapharma, Inc., priority 1995, dated 1998)

Experiments:
rat [1] = assay: Rat hot plate test, five consecutive daily intrathecal doses of elcatonin (Example 11); assay type: in vivo; conditions: 4.4 IU/kg intrathecal, five consecutive daily doses (FIG. 7)
Procedure: Intrathecal catheters were implanted in rats as described hereinabove, and a 7-10 day period thereafter allowed for full recovery from the surgical procedures.
Eighteen rats were assigned to three treatment groups of six rats per group. The study is conducted in two treatment phases at one week intervals. Treatment Group I rats receive no treatment. Group II rats receive five consecutive daily intrathecal doses of sterile physiological saline (vehicle control).
For each treatment, hot plate latencies are determined as described in Example 5 herein above at 0 minutes (predose, baseline), 1 hour, 3 hours, and 24 hours following injection on the first, third, and fifth study days.

rat [2] = assay: Rat hot plate test, intrathecal elcatonin with 0.1% human serum albumin (Example 13); assay type: in vivo; conditions: 4.4 IU/kg intrathecal in 0.1% HSA, 5 day multiple administrations (FIG. 9)
Procedure: On each study day, a standard 25% (wt/vol) solution of HSA is diluted under aseptic conditions with physiological saline ([…] of NaCl, USP grade) to achieve the desired stock solution concentration of 0.2% (wt/vol).
Thirty-two male rats (320-420 g) are obtained, adapted, catheterized and recovered as described hereinabove. […] Group II rats are injected intrathecally with a dose of 4.4 IU/kg in physiological saline containing 0.1% HSA, in a volume of 10 μL/kg. Group III rats are injected with physiological saline containing 0.1% HSA, 10 μL/kg. Each dose is followed by a washout of 8 μL of physiological saline.
In each of the study groups, hot plate latencies are determined at 0 minutes (baseline, predose), 1 hour, 3 hours, 6 hours, and 24 hours following intrathecal injections on the 1st, 3rd and 5th study days.

[Des-Cys^1,ASU^7 ]-Calcitonin, Eel [Elcatonin]
hot plate latency (rat [1]): hot plate latency is increased
hot plate latency at 24 hr after each successive injection (rat [1]): greater hot plate latency, and a cumulative analgesic effect over time
hot plate latency (rat [2]): increase in rat hot plate latency
